Results published in patent US20240189304A1, “BET PROTEIN INHIBITORS AND USE THEREOF” (The Regents of the University of California, priority 2021, published 2024).
Values joined by “and” are separate entries in the source; they are usually repeats but may differ in a detail not shown here. Equal entries are not always repeated.

Experiments:
C4-2B MDVR cells [1] = assay: C4-2B MDVR (enzalutamide resistant) cell growth, cell number; format: cell-based; details: for inhibition of cell growth (cell number): 5 μM
Procedure: (§1) Enzalutamide resistant C4-2B MDVR cells and darolutamide resistant C4-2B DaroR cells were treated with candidate compounds at 5 μM. BET (I-BET151; (R)-7-(3,5-dimethylisoxazol-4-yl)-8-methoxy-1-(1-(pyridin-2-yl)ethyl)-1,3-dihydro-2H-imidazo[4,5-c]quinolin-2-one; CAS RN 1300031-49-5) was used as the positive control at 5 μM. The cell number was determined. Only piperazine BET protein inhibitor 10 and the BET control inhibited both C4-2B MDVR and C4-2B DaroR cell growth at a concentration of 5 μM. Other compounds from the screen were not observed to effect cell growth under the test conditions.
C4-2B MDVR cells were treated with increasing doses of piperazine BET protein inhibitor 10 and compound 8 (8-(1-isopropyl-6-methyl-1H-pyrazolo[3,4-b]pyridine-5-carbonyl)-1,3-diazaspiro[4.5]decane-2,4-dione) as indicated. The cell number was determined after 3-day treatment.
(§2) C4-2B and C4-2B MDVR Cells were plated at 20,000 cells per well in 24-well plates and treated as indicated for 6 days. Total cell number was assessed by Coulter Counter. * indicates significant difference from control for each cell line, p<0.05.
C4-2B MDVR cells were plated at 20,000 cells per well in 24-well plates and treated for 5 days with the indicated compounds. The total cell number was determined and expressed as percentage of control. * indicates a significant difference from control, p<0.05.

C4-2B MDVR cells [2] = assay: Growth inhibition in combination with enzalutamide, coefficient of drug interaction; format: cell-based; details: for CDI with Enzalutamide / CDI: C4-2B MDVR cells; for CDI with Enzalutamide: treated for 5 days; for 3 Day CDI / 5 Day CDI: with enzalutamide (MDV); for CDI: with enzalutamide
Procedure: C4-2B AbiR: abiraterone resistance; C4-2B ApaR: apalutamide resistance; C4-2B DaroR: darolutamide resistance; C4-2B MDVR: enzalutamide resistance.
Piperidine BET protein inhibitor 2 was also found to synergize with enzalutamide in inhibiting the growth of enzalutamide-resistant C4-2b MDVR cells, as shown in FIG. 6A and FIG. 6B.
Organoids generated from enzalutamide resistant LuCaP35CR PDX tumors were treated with either piperazine BET protein inhibitor 10 at concentrations as indicated (A) or in combination with enzalutamide 20 μM(C) for 7 days; representative organoids were imaged under the fluorescence microscope after stained by LIVE/DEAD Viability/Cytotoxicity Kit (Invitrogen MP03224). Organoid viability was measured using CellTiter Glo (Promega Catelog#G9681) for piperazine BET protein inhibitor 10 single treatment (B) and for combinational treatment with enzalutamide (D, E). […] Blue indicates synergy while red indicates antagonism between drugs. The coefficient of drug interaction (CDI) is calculated as follows: CDI=AB/(A×B). A is growth inhibition effect of treatment with the BET protein inhibitor. B is growth inhibition effect of enzalutamide treatment. AB is the growth inhibition effect of the combination treatment. […] The coefficient of drug interaction (CDI) of 20 μM enzalutamide with 0.5 μM BET protein inhibitor combination treatment were 0.97 and 0.91 respectively in LuCaP35CR organoids, evidencing a synergistic effect (CDI=0.4222, <1).
C4-2B MDVR […], and then total cell numbers were determined. * indicates significant difference from control and ** indicates significant difference between Enza drug treatment and the combination treatment; p<0.05.

C4-2B DaroR cells [3] = assay: C4-2B DaroR (darolutamide resistant) cell growth, cell number; format: cell-based; details: 5 μM
Procedure: as §1

BRD4 = target: T1, BRD4 (Homo sapiens, UniProt O60885); assay: Western blot of BRD4 expression in C4-2B MDVR cells; format: cell-based; details: increasing doses, 2 days
T1 construct: endogenous in cells; host or cells: C4-2B MDVR
Procedure: (§3) C4-2B MDVR cells were treated with piperazine BET protein inhibitor 10 and the I-BET151 control at increasing doses for 2 days. The cell lysates were subjected to Western blot analysis for BRD4, AR-FL, and cMYC expression. As shown here, both piperazine BET protein inhibitor 10 and I-BET151 inhibited BRD4, AR-FL, and cMYC protein expression.

AR-FL = assay: Western blot of AR-FL expression in C4-2B MDVR cells; format: cell-based; details: increasing doses, 2 days
Procedure: as §3

cMYC = cMYC expression in C4-2B MDVR cells; format: cell-based; details: increasing doses, 2 days, Western blot
Procedure: as §3

C4-2B AbiR cells = assay: Growth inhibition in combination with abiraterone, coefficient of drug interaction; format: cell-based; details: with abiraterone (Abi)
C4-2B ApaR cells = assay: Growth inhibition in combination with apalutamide, coefficient of drug interaction; format: cell-based; details: with apalutamide (Apa)
C4-2B DaroR cells [4] = assay: Growth inhibition in combination with darolutamide, coefficient of drug interaction; format: cell-based; details: with darolutamide (Daro)
MYC signaling pathway = assay: Analysis of total RNA isolated from treated cells; format: cell-based; details: data not shown
[5] = test system: LuCaP49 prostate cancer PDX; assay: LuCaP49 prostate cancer PDX tumor growth in mice; format: in vivo; details: 60 mg/kg, i.p., daily, 5 days/week
Procedure: Mice bearing tumors from LuCaP49 prostate cancer PDX were treated with BETi-10 (60 mg/kg, i.p.) daily, 5 days/week. Tumor volume were measured and relative fold changes were calculated compared to the day 0 treatment.

Brd4 ET = Brd4 ET (Homo sapiens, UniProt O60885); details: peptide construct, read-out: binding affinity; cited from earlier work
Molm-13 cells = details: seven days post transduction; cited from earlier work
C4-2B cells = assay: C4-2B cell growth, total cell number by Coulter Counter; format: cell-based; details: 1-40 μM, 6 days
Procedure: as §2

Compound: Cc1nc2c(cnn2C(C)C)cc1C(=O)C1CCC2(CC1)NC(=O)NC2=O (stereo not drawn) [Compound 8, 8-(1-isopropyl-6-methyl-1H-pyrazolo[3,4-b]pyridine-5-carbonyl)-1,3-diazaspiro[4.5]decane-2,4-dione]
- growth inhibition at increasing doses (C4-2B MDVR cells [1]; 3-day treatment): no growth inhibition was observed

Compound: N[C@@H](Cc1c[nH]c2ccccc12)C(=O)Nc1cccc(C(=O)N2CCN(CCOc3ccc(Cl)cc3)CC2)c1 [Compound 12, (S)-2-Amino-N-(3-(4-(2-(4-chlorophenoxy)ethyl)piperazine-1-carbonyl)phenyl)-3-(1H-indol-3-yl)propenamide]
- CDI with Enzalutamide (C4-2B MDVR cells [2]): 0.90

Compound: O=C(Nc1cccc(C(=O)N2CCN(CCOc3ccc(Cl)cc3)CC2)c1)C1CCCO1 (stereo not drawn) [Compound 10, N-(3-(4-(2-(4-chlorophenoxy)ethyl)piperazine-1-carbonyl)phenyl)tetrahydrofuran-2-carboxamide]
- inhibition of cell growth (cell number) (C4-2B MDVR cells [1]): inhibited
- growth inhibition at increasing doses (C4-2B MDVR cells [1]; 3-day treatment): inhibited growth of C4-2B MDVR cells in a dose-dependent manner
- IC50 (C4-2B MDVR cells [1]; 72 h, 3-day treatment): 1.7 to 2.1 µM
- inhibition of cell growth (cell number) (C4-2B DaroR cells [3]): inhibited
- BRD4 protein expression (BRD4): inhibited
- AR-FL protein expression (AR-FL): inhibited
- cMYC protein expression (cMYC): inhibited
- 3 Day CDI (C4-2B AbiR cells; 1 μM (10)): 1.019
- 5 Day CDI (C4-2B AbiR cells; 1 μM (10)): 1.362
- 3 Day CDI (C4-2B AbiR cells; 2.5 μM (10)): 0.914
- 5 Day CDI (C4-2B AbiR cells; 2.5 μM (10)): 0.98 and 0.9835
- 3 Day CDI (C4-2B ApaR cells; 1 μM (10)): 0.7981
- 5 Day CDI (C4-2B ApaR cells; 1 μM (10)): 0.639
- 3 Day CDI (C4-2B ApaR cells; 2.5 μM (10)): 0.7358
- 5 Day CDI (C4-2B ApaR cells; 2.5 μM (10)): 0.54 and 0.5381
- 3 Day CDI (C4-2B DaroR cells [4]; 1 μM (10)): 0.6607
- 5 Day CDI (C4-2B DaroR cells [4]; 1 μM (10)): 0.4574
- 3 Day CDI (C4-2B DaroR cells [4]; 2.5 μM (10)): 0.6111
- 5 Day CDI (C4-2B DaroR cells [4]; 2.5 μM (10)): 0.38 and 0.3762
- CDI with Enzalutamide (C4-2B MDVR cells [2]): 0.76
- 3 Day CDI (C4-2B MDVR cells [2]; 1 μM (10)): 0.6791
- 5 Day CDI (C4-2B MDVR cells [2]; 1 μM (10)): 0.3464
- 3 Day CDI (C4-2B MDVR cells [2]; 2.5 μM (10)): 0.5693
- 5 Day CDI (C4-2B MDVR cells [2]; 2.5 μM (10)): 0.26 and 0.2628
- inhibition of the MYC signaling pathway (MYC signaling pathway): inhibit the MYC signaling pathway
- tumor growth (tumor volume, relative fold change to day 0) [5]: inhibit the growth

Compound: O=C(Nc1cccc(C(=O)N2CCN(CCOc3ccc(Cl)cc3)CC2)c1)c1ccco1 [Compound 11, N-(3-(4-(2-(4-chlorophenoxy)ethyl)piperazine-1-carbonyl)phenyl)furan-2-carboxamide]
- CDI with Enzalutamide (C4-2B MDVR cells [2]): 0.90
- inhibition of the MYC signaling pathway (MYC signaling pathway): inhibit the MYC signaling pathway

Compound: COc1cc2c(cc1-c1c(C)noc1C)ncc1[nH]c(=O)n([C@H](C)c3ccccn3)c12 [I-BET151, (R)-7-(3,5-dimethylisoxazol-4-yl)-8-methoxy-1-(1-(pyridin-2-yl)ethyl)-1,3-dihydro-2H-imidazo[4,5-c]quinolin-2-one, reference compound]
- inhibition of cell growth (cell number) (C4-2B MDVR cells [1]): inhibited
- inhibition of cell growth (cell number) (C4-2B DaroR cells [3]): inhibited
- BRD4 protein expression (BRD4): inhibited
- AR-FL protein expression (AR-FL): inhibited
- cMYC protein expression (cMYC): inhibited

Compound: 17 amino acid region TWRVQRSQNPLKIRKTR(389′-405′) (SEQ ID NO:1) of MLV IN, minimal binding region for Brd4 ET [EBM]
- Kd (Brd4 ET): ~0.16 µM
- reduction in cellular proliferation compared to vector control cells (Molm-13 cells): ~10 fold

Compound: N[C@@H](Cc1c[nH]cn1)C(=O)Nc1cccc(C(=O)N2CCN(CCOc3ccc(Cl)cc3)CC2)c1 [Compound 14, (S)-2-Amino-N-(3-(4-(2-(4-chlorophenoxy)ethyl)piperazine-1-carbonyl)phenyl)-3-(1H-imidazol-4-yl)propenamide]
- CDI with Enzalutamide (C4-2B MDVR cells [2]): 0.82

Compound: CC(C)(C)OC(=O)N[C@@H](Cc1c[nH]c2ccccc12)C(=O)Nc1cccc(C(=O)N2CCN(CCOc3ccc(Cl)cc3)CC2)c1 [Compound 13]
- CDI with Enzalutamide (C4-2B MDVR cells [2]): 0.81

Compound: CC(C)n1nccc1NC(=O)C1CCCN(C(=O)c2ccc(Cl)c(Cl)c2)C1 (stereo not drawn) [Compound 2, 1-(3,4-dichlorobenzoyl)-N-(1-isopropyl-1H-pyrazol-5-yl)piperidine-3-carboxamide]
- inhibition of cell growth (total cell number) (C4-2B MDVR cells [1]; 1-40 μM, 6 days): inhibit the growth of C4-2B and C4-2B MDVR cells in a dose-dependent manner
- CDI (C4-2B MDVR cells [2]; 3 Day, 10 μM 2): 0.751
- CDI (C4-2B MDVR cells [2]; 3 Day, 20 μM 2): 0.8105
- CDI (C4-2B MDVR cells [2]; 5 Day, 10 μM 2): 0.792
- CDI (C4-2B MDVR cells [2]; 5 Day, 20 μM 2): 0.702
- inhibition of cell growth (total cell number) (C4-2B cells): inhibit the growth of C4-2B and C4-2B MDVR cells in a dose-dependent manner
